Data from patent US20220273666A1, “NANOPARTICLE FORMULATION OF BCL-2 INHIBITOR” (Recurium IP Holdings, LLC, priority 2019, published 2022).

Legend:
NCI-H146 cells = assay: NCI-H146 cell proliferation assay (CellTiter-Glo); assay type: cell-based; conditions: Homo sapiens, 72 h treatment, read-out: H146 CTG IC50
Procedure: Cell proliferation was measured using the CellTiter-Glo® Luminescent Cell Viability Assay. The assay involved the addition of a single reagent (CellTiter-Glo® Reagent) directly to cells cultured in serum-supplemented medium. RS4;11 (ATCC, CRL-1873) cells were cultured according to ATCC recommendations and were seeded at 50,000 cells per well. NCI-H1963 cells (ATCC CRL-5982) were cultured according to ATCC recommendations and seeded at 12,000 cells per well. NCI-H146 (ATCC, HTB-173) cells were cultured according to ATCC recommendations and were seeded at 20,000 cells per well.
Each compound evaluated was prepared as a DMSO stock solution (10 mM). Compounds were tested in duplicate on each plate, with a 10-point serial dilution curve (1:3 dilution). Compound treatment (1.0 μL for RS4;11 and NCI-H1963, 10 μL for NCI-H146) was added from the compound dilution plate to the cell plate. The highest compound concentration was 10 μM (final), with a 0.1% final DMSO concentration. Plates were then incubated at 37° C., 5% CO2. After 48 h of compound treatment for RS4;11 or 72 h for NCI-H-1963 and NCI-H-146, cell plates were equilibrated at rt for approximately 30 mins. An equi-volume amount of CellTiter-G)® Reagent (40 (L for […] and NC-H1963, 100 μL for NCI-H-146)) was added to each well. Plates were mixed for 2 mins on an orbital shaker to induce cell lysis and then incubated at RT for 10 mins to stabilize the luminescent signal. Luminescence was recorded using a Envision or SpectraMax M5e plate reader according to CellTiter-Glo protocol. IC50 of each compound was calculated using GraphPad Prism by nonlinear regression analysis.

Bcl-2 = Bcl-2 (Homo sapiens, UniProt P10415); assay: Bcl-2/Bcl-XL HTRF assay
Bcl-XL = target: T1, Bcl-XL (Homo sapiens, UniProt Q07817); assay: Bcl-2/Bcl-XL HTRF assay; assay type: binding; conditions: 3 nM Bcl-XL, 40 nM FAM-Bad peptide
T1 construct: host or cells: T7 phage in E. coli host derived from BL21

[1] = multiple oral administration under fed conditions; cited from earlier work
[2] = Phase I/II clinical trials, chronic lymphocytic leukemia; cited from earlier work

Chain of Bcl-2 (P10415 whole entry): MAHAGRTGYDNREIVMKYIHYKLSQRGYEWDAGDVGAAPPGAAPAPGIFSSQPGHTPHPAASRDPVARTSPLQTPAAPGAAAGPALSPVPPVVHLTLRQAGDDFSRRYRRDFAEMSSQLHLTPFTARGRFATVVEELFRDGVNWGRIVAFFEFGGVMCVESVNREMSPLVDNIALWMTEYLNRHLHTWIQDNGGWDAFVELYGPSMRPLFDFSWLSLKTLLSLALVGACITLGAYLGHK
T1 sequence (Q07817 whole entry): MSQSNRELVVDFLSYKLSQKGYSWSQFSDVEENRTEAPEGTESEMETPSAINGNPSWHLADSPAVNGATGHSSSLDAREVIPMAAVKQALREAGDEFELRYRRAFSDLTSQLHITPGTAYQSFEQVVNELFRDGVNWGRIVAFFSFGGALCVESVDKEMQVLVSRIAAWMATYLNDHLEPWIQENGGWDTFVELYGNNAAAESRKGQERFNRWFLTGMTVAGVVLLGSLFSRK

| IC50 (NCI-H146 cells) | SMILES | IC50 (Bcl-2) | IC50 (Bcl-XL) | further results |
| --- | --- | --- | --- | --- |
| ≤ 100 nM | CCC12CC(C3=C(CN4CCN(c5ccc(C(=O)NS(=O)(=O)c6ccc(N[C@H](CCN7CCC(OC)CC7)CSc7ccccc7)c(S(=O)(=O)C(F)(F)F)c6)cc5)CC4)CCC(C)(C)C3)(C1)C2 [Example 108, (R)-4-(4-((2-(3-ethylbicyclo[1.1.1]pentan-1-yl)-4,4-dimethylcyclohex-1-en-1-yl)methyl)piperazin-1-yl)-N-((4-((4-(4-methoxypiperidin-1-yl)-1-(phenylthio)butan-2-yl)amino)-3-((triluoromethyl)sulfonyl)phenyl)sulfonyl)benzamide] | – | – | – |
| ≤ 100 nM | CCOC1CCN(CC[C@H](CSc2ccccc2)Nc2ccc(S(=O)(=O)NC(=O)c3ccc(N4CCN(CC5=C(C67CC(C(F)F)(C6)C7)CC(C)(C)CC5)CC4)cc3)cc2S(=O)(=O)C(F)(F)F)CC1 [Example 105, (R)-4-(4-((2-(3-(difluoromethyl)bicyclo[1.1.1]pentan-1-yl)-4,4-dimethylcyclohex-1-en-1-yl)methyl)piperazin-1-yl)-N-((4-((4-(4-ethoxypiperidin-1-yl)-1-(phenylthio)butan-2-yl)amino)-((trifluoromethyl)sulfonyl)phenyl)sulfonyl)benzamide] | – | – | – |
| 100 to 1000 nM | CC1(C)CCC(CN2CCN(c3ccc(C(=O)NS(=O)(=O)c4ccc(N[C@H](CCN5CCO[C@@H](CO)C5)CSc5ccccc5)c(S(=O)(=O)C(F)(F)F)c4)cc3)CC2)=C(C23CC(C(F)F)(C2)C3)C1 [Example 103] | – | – | – |
| ≤ 100 nM | CC(C)N1CCN(CC[C@H](CSc2ccccc2)Nc2ccc(S(=O)(=O)NC(=O)c3ccc(N4CCN(CC5=C(C67CC(C(F)F)(C6)C7)CC(C)(C)CC5)CC4)cc3)cc2S(=O)(=O)C(F)(F)F)CC1 [Example 107, (R)-4-(4-((2-(3-(difluoromethyl)bicyclo[1.1.1]pentan-1-yl)-4,4-dimethylcyclohex-1-en-1-yl)methyl)piperazin-1-yl)-N-((4-((4-(4-isopropylpiperazin-1-yl)-1-(phenylthio)butan-2-yl)amino)-3-((trifluoromethyl)sulfonyl)phenyl)sulfonyl)benzamide] | – | – | – |
| ≤ 100 nM | COC1(C)CCN(CC[C@H](CSc2ccccc2)Nc2ccc(S(=O)(=O)NC(=O)c3ccc(N4CCN(CC5=C(C67CC(C(F)F)(C6)C7)CC(C)(C)CC5)CC4)cc3)cc2S(=O)(=O)C(F)(F)F)CC1 [Example 101] | – | – | – |
| ≤ 100 nM | CC1(C)CCC(CN2CCN(c3ccc(C(=O)NS(=O)(=O)c4ccc(N[C@H](CCN5CCO[C@H](CO)C5)CSc5ccccc5)c(S(=O)(=O)C(F)(F)F)c4)cc3)CC2)=C(C23CC(C(F)F)(C2)C3)C1 [Example 102] | – | – | – |
| ≤ 100 nM | CC1(C)CCC(c2ccc(Cl)cc2)=C(CN2CCN(c3ccc(C(=O)NS(=O)(=O)c4ccc(N[C@H](CCN5CCOCC5)CSc5ccccc5)c(S(=O)(=O)C(F)(F)F)c4)cc3)CC2)C1 [ABT-263, Navitoclax, reference compound] | – | – | side effect limiting dosage [2]: occurrence of thrombocytopenia |
| 100 to 1000 nM | CC(C)OC1CCN(CC[C@H](CSc2ccccc2)Nc2ccc(S(=O)(=O)NC(=O)c3ccc(N4CCN(CC5=C(C67CC(C(F)F)(C6)C7)CC(C)(C)CC5)CC4)cc3)cc2S(=O)(=O)C(F)(F)F)CC1 [Example 106] | – | – | – |

Further lines, the compound ahead of its results:

| SMILES | IC50 (NCI-H146 cells) | IC50 (Bcl-2) | IC50 (Bcl-XL) | further results |
| --- | --- | --- | --- | --- |
| COC1CCN(CC[C@H](CSc2ccccc2)Nc2ccc(S(=O)(=O)NC(=O)c3ccc(N4CCN(CC5=C(C67CC(C(F)F)(C6)C7)CC(C)(C)CC5)CC4)cc3)cc2S(=O)(=O)C(F)(F)F)CC1 [Example 99, (R)-4-(4-((2-(3-(difluoromethyl)bicyclo[1.1.1]pentan-1-yl)-4,4-dimethylcyclohex-1-en-1-yl)methyl)piperazin-1-yl)-N-((4-((4-(4-methoxypiperidin-1-yl)-1-(phenylthio)butan-2-yl)amino)-3-((trifluoromethyl)sulfonyl)phenyl)sulfonyl)benzamide] | ≤ 100 nM | < 10 nM | < 10 nM | – |
| COC(=O)C1(C)CCN(CC[C@H](CSc2ccccc2)Nc2ccc(S(=O)(=O)NC(=O)c3ccc(N4CCN(CC5=C(C67CC(C(F)F)(C6)C7)CC(C)(C)CC5)CC4)cc3)cc2S(=O)(=O)C(F)(F)F)CC1 [Example 104, (R)-Methyl 1-(3-((4-(N-(4-(4-((2-(3-(difluoromethyl)bicyclo[1.1.1]pentan-1-yl)-4,4-dimethylcyclohex-1-en-1-yl)methyl)piperazin-1-yl)benzoyl)sulfamoyl)-2-((trifluoromethyl)sulfonyl)phenyl)amino)-4-(phenylthio)butyl)-4-methylpiperidine-4-carboxylate] | ≤ 100 nM | < 10 nM | < 10 nM | – |
| CC1(C)CCC(CN2CCN(c3ccc(C(=O)NS(=O)(=O)c4ccc(N[C@H](CCN5CCCC5)CSc5ccccc5)c(S(=O)(=O)C(F)(F)F)c4)cc3)CC2)=C(C23CC(C(F)F)(C2)C3)C1 [Example 100, (R)-4-(4-((2-(3-(difluoromethyl)bicyclo[1.1.1]pentan-1-yl)-4,4-dimethylcyclohex-1-en-1-yl)methyl)piperazin-1-yl)-N-((4-((1-(phenylthio)-4-(pyrrolidin-1-yl)butan-2-yl)amino)-3-((trifluoromethyl)sulfonyl)phenyl)sulfonyl)benzamide] | ≤ 100 nM | < 10 nM | < 10 nM | – |
| CC1(C)CCC(CN2CCN(c3ccc(C(=O)NS(=O)(=O)c4ccc(NCC5CCOCC5)c([N+](=O)[O-])c4)c(Oc4cnc5[nH]ccc5c4)c3)CC2)=C(c2ccc(Cl)cc2)C1 [ABT-199, venetoclax] | – | – | – | time to maximum plasma concentration [1]: 5 to 8 h |
| CN1CCN(CC[C@H](CSc2ccccc2)Nc2ccc(S(=O)(=O)NC(=O)c3ccc(N4CCN(CC5=C(C67CC(C(F)F)(C6)C7)CC(C)(C)CC5)CC4)cc3)cc2S(=O)(=O)C(F)(F)F)CC1 [Example 98, (R)-4-(4-((2-(3-(difluoromethyl)bicyclo[1.1.1]pentan-1-yl)-4,4-dimethylcyclohex-1-en-1-yl)methyl)piperazin-1-yl)-N-((4-((4-(4-methylpiperazin-1-yl)-1-(phenylthio)butan-2-yl)amino)-3-((trifluoromethyl)sulfonyl)phenyl)sulfonyl)benzamide] | 100 to 1000 nM | < 10 nM | < 10 nM | – |
